Results published in US20250282779A1, “SUBSTITUTED 5,6,7,8-TETRAHYDROPYRIDO[2,3-D]PYRIMIDINE-2,4-DIONES FOR TREATING CARDIAC DISEASES” (MYOKARDIA, INC., priority 2018, published 2025).

Assays:
Format in all cases: biochemical
bovine cardiac myosin [1] = target: T1, bovine cardiac myosin (Bos taurus (Bovine), UniProt Q9BE39); test: Myosin inhibition assay (bcMF serum pCa 6 IC50), 10% human serum; conditions: in the presence of 10% human serum
Text: Myosin Inhibition Assay (bcMF Serum pCa 6 IC50 (μM))
Inhibition of the enzymatic activity of bovine cardiac myosin associated with the release of ADP (adenosine diphosphate) at the calcium concentrate that achieves a 50% activation of the bovine cardiac myofibril system in the presence of 10% human serum. The procedure was the same as that bovin cardiac myosin inhibition assay (bcMF pCa 6 IC50 (μM)) but with the addition of 10% human serum.

rabbit skeletal myosin = test: Myosin inhibition assay (rbskMF pCa 6 IC50); conditions: cardiac vs rabbit skeletal myofibrils
Text: Myosin inhibition assay (rbskMF pCa 6 IC50 (μM))
Inhibition of the enzymatic activity of rabbit skeletal myosin associated with the release of ADP (adenosine diphosphate) at the calcium concentrate that achieves a 50% activation of the rabbit skeletal myofibril system. The procedure was the same as that of bovin cardiac myosin inhibition assay (bcMF pCa 6 IC50 (μM)) by replacing bovine cardiac myofibril with rabbit skeletal myofibril.

bovine cardiac myosin [2] = target: T1, bovine cardiac myosin; test: Myosin inhibition assay (bcMF pCa 6 IC50); conditions: bovine cardiac myofibrils, calcium giving 50% activation
Description: Myosin inhibition assay (bcMF pCa 6IC50 (μM))
Small molecule agents were assessed for their ability to inhibit the enzymatic activity of bovine cardiac myosin using a biochemical assay that couples the release of ADP (adenosine diphosphate) from cardiac myosin to an enzymatic coupling system consisting of pyruvate kinase and lactate dehydrogenase (PK/LDH) and monitoring the absorbance decrease of NADH (at 340 nm) as a function of time. PK converts ADP to ATP (adenosine triphosphate) by converting PEP (phosphoenolpyruvate) to pyruvate. Pyruvate is then converted to lactate by LDH by converting NADH (nicotinamide adenine dinucleotide) to NAD (oxidized nicotinamide adenine dinucleotide). The source of cardiac myosin was from bovine heart in the form of skinned myofibrils. Prior to testing small molecule agents, the bovine myofibrils were assessed for their calcium responsiveness and the calcium concentration that achieves a 50% activation of the myofibril system was chosen as the final condition for assessing the inhibitory activity of the small molecule agents. All enzymatic activity was measured in a buffered solution containing 12 mM PIPES (piperazine-N,N′-bis(2-ethanesulfonic acid), 2 mM magnesium chloride at pH 6.8 (PM12 buffer). Final assay conditions were 1 mg/mL of bovine cardiac myofibrils, 0.4 mM PK/LDH, 50 uM ATP, 0.1 mg/mL BSA (bovine serum albumin), 10 ppm antifoam, 2 mM BME, 0.5 mM NADH, and 1.5 mM PEP at the desired free calcium concentration required to achieve 50% activation of the myofibrils.
A dilution series of compound was created in DMSO such that the final desired concentration of compound would be achieved in a volume of 30 μL with a fixed DMSO concentration of 3.3% (v/v). Typically 1 μL of the dilution series were added to 384 well plate to achieve a 10 point dose response. Following the addition of 14 μL of a solution containing bovine cardiac myofibrils, PK/LDH and a solution of calcium (that achieved 50% activation), the enzymatic reaction was started with the addition of 15 μL of a solution containing ATP, PEP and NADH. The reaction progress was followed in a PerkinElmer Envision plate reader at ambient temperature using clear bottom plates. The plate reader was configured to read absorbance at 340 nm in kinetics mode for 15 minutes. Data were recorded as the slope of the absorbance response to time. The slopes of the absorbance response as a function of time were normalized to slopes on the plate containing DMSO. This normalized rate was then plotted as a function of small molecule concentration and the data was fitted to a four-parameter fit using EXCEL XLfit. The IC50 is the concentration at which fifty percent of the total response is inhibited.

T1 sequence (Q9BE39 whole entry): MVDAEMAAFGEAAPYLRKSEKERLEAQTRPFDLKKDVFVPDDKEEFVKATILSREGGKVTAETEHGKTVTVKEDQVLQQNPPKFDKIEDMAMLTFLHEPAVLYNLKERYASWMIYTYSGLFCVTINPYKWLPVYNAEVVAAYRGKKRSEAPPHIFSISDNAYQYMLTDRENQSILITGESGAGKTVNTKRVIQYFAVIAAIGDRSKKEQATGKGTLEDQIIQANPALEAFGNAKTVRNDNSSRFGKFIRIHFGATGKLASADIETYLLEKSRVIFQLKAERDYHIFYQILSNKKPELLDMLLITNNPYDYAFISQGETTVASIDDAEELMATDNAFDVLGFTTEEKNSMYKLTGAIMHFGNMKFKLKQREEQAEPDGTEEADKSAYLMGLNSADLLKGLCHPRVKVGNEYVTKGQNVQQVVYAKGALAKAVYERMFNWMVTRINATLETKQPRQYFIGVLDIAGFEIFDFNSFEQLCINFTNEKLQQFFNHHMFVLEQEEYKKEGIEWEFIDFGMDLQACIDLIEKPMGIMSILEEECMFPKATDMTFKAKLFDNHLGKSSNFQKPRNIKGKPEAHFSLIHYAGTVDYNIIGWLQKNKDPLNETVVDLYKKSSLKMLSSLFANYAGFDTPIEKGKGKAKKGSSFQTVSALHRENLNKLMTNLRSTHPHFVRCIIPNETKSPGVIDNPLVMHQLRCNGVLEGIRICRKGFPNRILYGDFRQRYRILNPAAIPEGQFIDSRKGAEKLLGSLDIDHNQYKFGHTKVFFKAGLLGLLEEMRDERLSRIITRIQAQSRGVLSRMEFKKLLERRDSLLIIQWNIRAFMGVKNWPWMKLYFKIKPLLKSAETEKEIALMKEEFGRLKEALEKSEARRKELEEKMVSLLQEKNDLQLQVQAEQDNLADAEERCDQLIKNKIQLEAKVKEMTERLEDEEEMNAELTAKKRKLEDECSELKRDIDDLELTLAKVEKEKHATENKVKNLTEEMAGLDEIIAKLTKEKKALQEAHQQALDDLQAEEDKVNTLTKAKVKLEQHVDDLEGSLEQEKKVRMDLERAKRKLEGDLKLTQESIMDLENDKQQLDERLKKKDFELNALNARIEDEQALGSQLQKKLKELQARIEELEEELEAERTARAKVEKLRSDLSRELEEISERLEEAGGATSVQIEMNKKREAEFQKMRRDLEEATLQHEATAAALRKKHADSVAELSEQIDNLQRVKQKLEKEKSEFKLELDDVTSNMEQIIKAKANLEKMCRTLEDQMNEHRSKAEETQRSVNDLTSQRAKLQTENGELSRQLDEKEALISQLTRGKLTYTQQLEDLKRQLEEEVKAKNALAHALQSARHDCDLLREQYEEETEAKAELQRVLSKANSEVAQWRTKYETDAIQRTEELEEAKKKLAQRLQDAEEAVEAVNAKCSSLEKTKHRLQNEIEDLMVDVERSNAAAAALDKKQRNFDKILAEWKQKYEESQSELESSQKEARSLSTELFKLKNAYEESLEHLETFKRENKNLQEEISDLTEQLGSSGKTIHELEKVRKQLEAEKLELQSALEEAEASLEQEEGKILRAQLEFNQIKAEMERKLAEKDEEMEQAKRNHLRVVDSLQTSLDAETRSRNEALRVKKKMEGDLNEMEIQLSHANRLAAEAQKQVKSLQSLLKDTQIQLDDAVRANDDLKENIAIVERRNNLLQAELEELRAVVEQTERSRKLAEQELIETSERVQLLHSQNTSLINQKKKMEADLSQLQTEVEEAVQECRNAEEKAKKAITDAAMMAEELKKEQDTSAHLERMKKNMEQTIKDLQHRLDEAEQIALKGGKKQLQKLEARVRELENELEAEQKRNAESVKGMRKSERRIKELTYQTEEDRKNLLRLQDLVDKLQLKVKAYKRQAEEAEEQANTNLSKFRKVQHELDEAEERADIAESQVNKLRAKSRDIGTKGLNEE
T1 sequence (P85100 whole entry partner): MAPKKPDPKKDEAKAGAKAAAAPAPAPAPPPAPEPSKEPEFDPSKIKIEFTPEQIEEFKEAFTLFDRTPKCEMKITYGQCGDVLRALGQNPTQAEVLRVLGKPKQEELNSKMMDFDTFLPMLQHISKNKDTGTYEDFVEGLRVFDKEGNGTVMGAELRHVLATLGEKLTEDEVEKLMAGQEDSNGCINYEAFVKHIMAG
T1 sequence (Q3SZE5 whole entry partner): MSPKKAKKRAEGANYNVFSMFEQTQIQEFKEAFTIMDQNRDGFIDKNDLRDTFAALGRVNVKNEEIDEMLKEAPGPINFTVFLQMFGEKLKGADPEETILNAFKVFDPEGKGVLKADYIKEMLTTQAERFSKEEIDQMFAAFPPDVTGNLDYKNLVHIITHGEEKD

IC50 (bovine cardiac myosin [1]) [µM]	IC50 (bovine cardiac myosin [2]; read-out: bcMF pCa 6 IC50) [µM]	IC50 (bovine cardiac myosin [2]; read-out: bcMF pCa_6 IC50 MEAN) [µM]	Compound	Cardiac selectivity ratio vs rbskMF pCa 6 IC50 (rabbit skeletal myosin)
1.56	1.11	1.11	Cc1ccc(F)c([C@@H]2Nc3[nH]c(=O)n(C4CCOCC4)c(=O)c3C[C@@H]2F)c1 [Compound 3, (6S,7S)-6-fluoro-7-(2-fluoro-5-methylphenyl)-3-(tetrahydro-2H-pyran-4-yl)-5,6,7,8-tetrahydropyrido[2,3-d]pyrimidine-2, 4 (1H, 3H)-dione]	4.51
3.49	1.57	–	O=c1[nH]c2c(c(=O)n1C1CCOCC1)CC(F)(F)[C@H](c1cccc(F)c1)N2 [Compound C-1, (S)-6,6-difluoro-7-(3-fluorophenyl)-3-(tetrahydro-2H-pyran-4-yl)-5,6,7,8-tetrahydropyrido[2,3-d]pyrimidine-2,4(1H,3H)-dione, reference compound]	5.48
